Measured values taken from publication PMC8071972, “Urinary L-erythro-β-hydroxyasparagine—a novel serine racemase inhibitor and substrate of the Zn^2+-dependent D-serine dehydratase” (Bioscience Reports, 2021).

Legend:
Format in all cases: biochemical
[1] = target: T1, serine racemase (mouse SR) (Mus musculus, UniProt Q9QZX7); assay: enzymatic resolution of racemic β-EHAsp by recombinant enzyme
T1 construct: gene Srr; N-terminal His-tag, recombinant from E. coli
T1 sequence (Q9QZX7 1-339): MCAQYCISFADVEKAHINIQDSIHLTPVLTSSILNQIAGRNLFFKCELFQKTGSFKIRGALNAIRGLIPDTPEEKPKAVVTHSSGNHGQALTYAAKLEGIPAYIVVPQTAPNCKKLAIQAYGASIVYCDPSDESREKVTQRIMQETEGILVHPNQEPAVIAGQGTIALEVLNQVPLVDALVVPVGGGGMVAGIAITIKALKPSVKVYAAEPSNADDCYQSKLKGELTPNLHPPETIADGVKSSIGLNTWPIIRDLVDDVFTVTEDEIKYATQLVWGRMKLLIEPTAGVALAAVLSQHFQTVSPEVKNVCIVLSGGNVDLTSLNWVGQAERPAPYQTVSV

[2] = target: T2, asparaginase (AnsA; printed AsnA in the results, asparaginase 1) (Escherichia coli, UniProt P0A962); assay: HPLC of urinary amino acids treated with purified enzyme
T2 construct: N-terminal His-tagged protein
T2 sequence (P0A962 1-338): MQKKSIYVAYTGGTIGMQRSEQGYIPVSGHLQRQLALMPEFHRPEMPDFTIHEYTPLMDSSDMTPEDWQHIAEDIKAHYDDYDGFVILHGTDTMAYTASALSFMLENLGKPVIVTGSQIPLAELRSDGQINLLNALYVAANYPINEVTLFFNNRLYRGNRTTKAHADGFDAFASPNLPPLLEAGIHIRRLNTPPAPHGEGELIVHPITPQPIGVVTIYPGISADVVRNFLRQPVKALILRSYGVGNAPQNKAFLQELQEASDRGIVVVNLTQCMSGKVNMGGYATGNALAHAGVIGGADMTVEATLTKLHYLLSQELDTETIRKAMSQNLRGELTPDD

[3] = target: T3, D-serine dehydratase (Dsd1p) (Saccharomyces cerevisiae, UniProt P53095); assay: HPLC and LC-ESI-MS of urinary amino acid degradation by purified enzyme
T3 construct: gene DSD1; N-terminal His-tagged protein
T3 sequence (P53095 1-428): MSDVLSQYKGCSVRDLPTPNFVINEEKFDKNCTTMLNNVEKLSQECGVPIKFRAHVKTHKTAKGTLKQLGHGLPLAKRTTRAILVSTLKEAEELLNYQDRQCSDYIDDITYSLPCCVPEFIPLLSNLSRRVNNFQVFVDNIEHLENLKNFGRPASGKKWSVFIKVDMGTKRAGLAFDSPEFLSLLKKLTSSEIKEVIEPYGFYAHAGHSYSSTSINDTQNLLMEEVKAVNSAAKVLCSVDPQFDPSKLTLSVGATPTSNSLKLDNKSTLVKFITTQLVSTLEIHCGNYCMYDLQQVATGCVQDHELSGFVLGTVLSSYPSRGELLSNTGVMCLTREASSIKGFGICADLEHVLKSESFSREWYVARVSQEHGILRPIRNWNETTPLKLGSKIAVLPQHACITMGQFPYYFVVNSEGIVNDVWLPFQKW

[4] = target: T1, serine racemase (mouse SR); assay: LDH-coupled L-Ser dehydration assay, steady-state kinetics
[5] = target: T4, asparagine synthase (AsnA) (Escherichia coli, UniProt P00963); assay: preparative enzymatic amidation, HPLC
T4 construct: N-terminal His-tagged protein
T4 sequence (P00963 1-330): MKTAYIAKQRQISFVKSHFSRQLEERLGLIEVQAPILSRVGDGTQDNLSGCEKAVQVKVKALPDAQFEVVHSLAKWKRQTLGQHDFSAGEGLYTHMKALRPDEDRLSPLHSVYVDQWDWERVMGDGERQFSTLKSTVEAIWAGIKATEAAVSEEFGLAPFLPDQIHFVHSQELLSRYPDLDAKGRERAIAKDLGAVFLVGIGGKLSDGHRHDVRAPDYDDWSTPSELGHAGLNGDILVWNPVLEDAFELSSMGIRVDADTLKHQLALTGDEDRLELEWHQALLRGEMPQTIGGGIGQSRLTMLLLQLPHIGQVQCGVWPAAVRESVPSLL

N[C@@H](C(=O)O)[C@H](O)C(=O)O (racemic) [D-β-EHAsp]
enzymatic resolution of racemic β-EHAsp by recombinant enzyme [1]: could efficiently eliminate D-β-EHAsp from the racemic mixture

NC(=O)[C@H](O)[C@H](N)C(=O)O (stereo in doubt) [L-β-EHAsn, L-erythro-β-hydroxyasparagine]
HPLC of urinary amino acids treated with purified enzyme [2]: Urinary β-OH-Asn could be converted into the corresponding isomer of β-hydroxy aspartate (β-OH-Asp) using the E. coli asparaginase
HPLC and LC-ESI-MS of urinary amino acid degradation by purified enzyme [3]: the urinary Dsd1p substrate was identified as the (2S, 3S)-isomer of β-OH-Asn (L-β-EHAsn)
Ki [4]: 40 ± 6 µM

N[C@H](C(=O)O)[C@@H](O)C(=O)O [L-β-EHAsp]
preparative enzymatic amidation, HPLC [5]: L-β-EHAsp was further converted to L-β-EHAsn by the action of E. coli AsnA
